Tests used:
mouse splenocytes = assay: Allogeneic mixed lymphocyte reaction, T cell proliferation by CFSE staining; type: cell-based; conditions: vs IgG control, n=4
Source text: The assay measures T cell proliferative response by levels of CFSE staining.

human islet cells [1] = assay: Initial characterization of human islets cultured 24 hours (Example 1); type: cell-based; conditions: AAGP 3 mg/mL
Procedure: Research-grade human islet preparations are cultured for 24 hours in the following groups: • 1) AAGP™ supplemented islets cells; and • 2) Controls (non-supplemented islets cells).
(§1) Islets are cultured in humidified atmosphere of 95% air and 5% CO2 at 37° C., at a density of 200 IE/mL using standard tissue culture flask. The AAGP™ concentration is 3 mg/mL. Several tests are conducted on day 1 post-islet isolation, including: Islet recovery, membrane integrity viability stain (Syto® EB) as well as Glucose-Stimulated Insulin Release.

human islets [2] = assay: Glucose-stimulated insulin secretion (GSIS) perifusion assay; type: cell-based; conditions: AAGP 3 mg/mL, 24 hr culture
Procedure: Islet secretory function is assessed by monitoring in vitro insulin secretory profile during continuous glucose stimulation, as described by Cabrera et al Cell transplantation 2008;16(10):1039-1048. This in vitro perifusion assay is a modality of continuous Glucose-Stimulated Insulin Secretion (GSIS) test to stress islets in alternating normoglycemic and hyperglycemic environment to model physiological islet response. Supernatants from the perifusion assay are collected and insulin levels are determined using a commercially available ELISA kit (Insulin ELISA kit. Mercodia Inc. Pittsburgh, PA, USA). Results are expressed as fold-change of insulin secretion compared to the low (2.8 mMol) glucose stimulation baseline, normalized for 100 IEQ.

human islets [3] = assay: Kidney subcapsular minimal mass islet transplant in Rag1 mice (Example 3); type: in vivo, immunodeficient mice (Rag1); conditions: ~1000 IEQ, islets cultured 24 h with AAGP 3 mg/mL, n=4 & 5
Procedure: Two research-grade human islet preparations are cultured for 24 hours in the following groups: • 1) AAGP™+ supplemented islets cells; and • 2) Control (non-supplemented islets)
Islets are cultured in humidified atmosphere of 95% air and 5% CO2 at 37° C., at a density of 200 IE/mL using standard tissue culture flask. AAGP™ concentration is 3 mg/mL. After 24 h, kidney subcapsular islet transplant is performed on immunodeficient mice (Rag1) with minimal islet mass (˜1000 IEQ) to assess transplant efficacy (n=4 & 5, control and AAGP™ respectively).

human islet cells [4] = assay: Protection of human islets from tacrolimus toxicity (Example 2); type: cell-based; conditions: AAGP 3 mg/mL
Procedure: Research-grade human islet preparations are cultured for 48 hours in the following groups: • 1) No tacrolimus (Tac−) treated beta islet cells; • 2) Tracrolimus (Tac+) treated beta islet cells; and • 3) Tacrolimus (Tac+) treated+AAGP™ supplementation beta islet cells.
After 48 h, tacrolimus ([…]) was added to group 2 and 3.
as §1, with “flask.” for “flask. The”, “D1” for “day 1”, “(Syto” for “(Syto®”, “Glucose-stimulated” for “Glucose-Stimulated”

human islets [5] = assay: Viability by fluorescent membrane integrity assay (syto green/ethidium bromide); type: cell-based; conditions: AAGP 3 mg/mL, 24 hr culture, vs non-supplemented control
Procedure: After 24 hr of culture, islets are assessed for recovery, viability and function. Recovery rate is calculated as the percentage of surviving islets after 24 hr culture in comparison to the initial count for each condition. Viability is assessed using a fluorescent membrane integrity assay with counter-stains syto green/ethidium bromide (Cedarlane Laboratories, Burlington, ON, and Sigma-Aldrich, ON) (Islet isolation for clinical transplantation. In: Shahidul. M, (ed). The islets of Langerhans. New York: Springer, 2010; Ranuncoli A, et al. Cell transplantation 2000; 9(3):409-414; Ricordi C. et al. Acta diabetologica latina 1990; 27(3):185-195; and Barnett M J et al. Cell transplantation 2004; 13(5):481-488).

human islets [6] = assay: Intra-islet calcium concentration; type: cell-based; conditions: Tac−, Tac+AAGP groups
Procedure: Various electrophysiology studies were performed on human islets to elucidate a potential mechanism of action for the AAGP™ by characterizing the CNI-related injury and its avoidance.

human islets [7] = assay: Extracellular ROS in culture media, Acridan Lumigen PS-3 assay; type: cell-based; conditions: media 24 hr after tacrolimus exposure, ± AAGP
Procedure: Frozen samples from all groups are utilized to determine reactive oxygen species (ROS) in the culture media, using the Acridan Lumigen™ PS-3 assay (Amershan ECL Plus kit, Fisher Scientific Inc. Ottawa, ON, Canada) (18). In this assay Acridan Lumigen™ PS-3 is excited by reactive oxygen and nitrogen species (RNS) in the presence of hydrogen peroxide, producing chemiluminescense at 430 nm. Media samples are flash-frozen with liquid nitrogen and stored until the assay is performed. CMRL culture media alone is used as a control, and results are expressed as fold-change increase compared to the control media.

[8] = Solubility and stability of AAGP in media; type: physicochemical
[9] = system: syngeneic islet transplant; assay: Syngeneic full mass islet transplant with continuous tacrolimus treatment; type: in vivo, mouse; conditions: AAGP in culture media 1 hour prior to transplant; tacrolimus 1 mg/kg/day by osmotic pump
Source text: FIG. 11 illustrates the post-transplant graft function in immunodefficient mice receiving minimal human islet mass (˜1000 IEQ). Islets were previously treated with AAGP™ and tracrolimus accordingly. […] The dotted line indicates graft recovery nephrectomy on day 60. B. Intraperitoneal glucose tolerance test (IPGTT) to evaluate metabolic response after receiving a glucose bolus. C. Insulin content of removed grafts after 60 days of transplant as an indication of residual islet mass. Data points represent mean±SEM adjusted per gram of tissue, (Tac− n=6, Tac+ n=3 and Tac+AAGP™ n=7), *p<0.05, **p<0.01 and ***p<0.001. D and E. Post-transplant graft function in mice receiving syngeneic full mass (˜500 IEQ) islet transplant. AAGP™ was added to the culture media 1 hour prior to transplant and tacrolimus was administered via a subcutaneous osmotic pump (implanted during the same procedure) at a continuous rate of 1 mg/kg/day. D. Pooled blood glucose profiles of animal over 40 days with clear dysfunction for Tac+ islets during the presence of Tac. Vertical dotted line indicates tacrolimus treatment cessation and marks a gradual recovery of Tac+ grafts. Horizontal continuous line at y=11 indicates the normoglycemia limit. Graft recovery nephrectomy was again performed on day 30. E. Mean time-to-euglycemia after transplant showing Tac+AAGP™ mice reversing diabetes earlier (p<0.001, log-rank, Mantel-cox test). […] These differences were not observed in the Tac+AAGP™ group.
To further support these findings a transplant experiment was performed in a syngeneic diabetic mouse transplant model with continuous treatment with tacrolimus to resemble clinical practice.
To make our experiments more clinically relevant, a new in vivo syngeneic mouse transplant model was performed, with tacrolimus as a continuous treatment by means of a subcutaneous osmotic pump. It was observed that the functional impairment of transplanted islets occurred immediately after starting administration of the CNI and lasted during the entire treatment period (7 days).

C[C@H](NC(=O)[C@H](C)NC(=O)[C@@H](N)CCCCNC(=O)C(F)(F)C1(O)O[C@H](CO)[C@H](O)[C@H](O)[C@H]1O)C(=O)O (stereo partly shown) [AAGP™]
T cell proliferation (CD8+ and CD4+) (mouse splenocytes): no significant decrease in proliferation of T cells
toxicity on human islet cells (human islet cells [1]): no toxicity
islet survival in culture (human islet cells [1]; 24 hours): seems to enhance islet survival in culture
insulin secretion during the second secretory phase (perifusion curves) (human islets [2]; vs control): significant increase in insulin secretion
GSIS perifusion area under the curve (insulin release) (human islets [2]; control 75.5±0.5): 149.5±0.5
transplant outcome with minimal islet mass (human islets [3]): inconclusive
protection of islets exposed to tacrolimus in vitro (human islet cells [4]): protects islet exposed to tacrolimus in vitro
cellular viability per membrane integrity assay (human islets [5]): no differences in cellular viability
calcium concentration in islets (human islets [6]): neither tacrolimus nor AAGP™ affected the calcium concentration
extracellular ROS (fold-increase vs control media) (human islets [7]): ameliorated
solubility ([8]; all media): highly soluble in all media
stability ([8]; compared to natural AFP): more stable
graft function / period to achieve euglycemia [9]: period to achieve euglycemia was similar to the control group
